Measurements from patent US20240225985A1, “BRIGHTENING COMPOSITIONS AND METHODS OF USE” (Alastin Skincare, Inc., priority 2021, published 2024).
“Also recorded” adds a separate entry of the source.

Legend:
[1] = system: facial dyschromia and/or hyperpigmentation; test: Clinical study, participant questionnaire; assay type: in vivo, human
Description: (§1) Participants underwent up to 8 study visits: screening, baseline, and 3 follow-up visits in the main study, and a 12-week extension study extended to participants at the week 12 follow up visit, which included an additional 3 follow-up visits to be conducted over 12 weeks: week 16, 20, and a final visit at week 24. At the initial screening visit, participants were consented prior to any study procedures. Medical/aesthetic history, concomitant medications, and study eligibility were collected and assessed. The following procedures were performed at Baseline: Investigator assessments, photography, Optical Coherence Tomography (OCT) imaging of the skin (only at select sites). […] Participants were asked to return to the office for follow-up visits at 4, 8, and 12 weeks. […] Participants randomized to the topical study product continued use of the product throughout the duration of the study, along with the study provided cleanser and sunscreen to apply to their facial skin as previously instructed.

[2] = system: facial dyschromia and/or hyperpigmentation; test: Clinical study, investigator assessment of facial skin severity; assay type: in vivo, human; details: scale 0-9
Description: Forty-three (43) participants (male and female; skin types I-IV; mean age 49.2) with mild to severe facial dyschromia and/or hyperpigmentation on the face were enrolled. Participants provided consent and agreed to limit their sun exposure for the duration of the study. Participants were required to comply with the skincare regimen and return for follow-up visits. This study population was deemed a large enough sample size for safety and efficacy. Only eligible participants were selected to participate. Participants that were enrolled and completed the 3-month study for this protocol were eligible to participate in the 3-month extension study.
as §1
(§2) The products were supplied in a kit with a number and then dispensed according to the baseline grading of dyschromia.
As summarized in Table 15, investigator assessment of facial skin severity considered the overall appearance of dyschromia, skin tone (clarity and evenness), radiance, and skin texture, on the following scale: 0=none; 1-3=mild; 4-6=moderate; 7-9=severe.

[3] = system: facial skin; test: Clinical study, investigator assessment of tolerability (erythema, dryness, peeling); assay type: in vivo, human
Description: as §1

[4] = system: facial dyschromia and/or hyperpigmentation; test: Clinical study, investigator mMASI scoring; assay type: in vivo, human
Description: as §1, §2
Investigator mMASI scoring was performed using a modified MASI scoring method depicted in FIG. 13.

[5] = system: facial skin; test: Clinical study, participant assessment of tolerability (burning/stinging, tingling, itching); assay type: in vivo, human
Description: as §1

[6] = system: facial skin; details: human, in vivo, 12 weeks
Description: Adverse events as assessed by investigators is an extremely important parameter for determining potential shortcomings of a product for treatment.

[7] = system: hTERT-immortalized dermal melanocytes; test: Melanocyte assay, daily inspection of cell morphology; assay type: cell-based, human; details: both concentrations of Table 11; five-day dosing period
Protocol: Once the melanocytes were 100% confluent in 6-well plates, the melanocyte growth media was removed and the melanocytes were treated with media containing the above compounds; duplicate wells for each compound/concentration listed above. The duplicate vehicle control wells were fed melanocyte growth media only or melanocyte growth media with DMSO (10 uL per 10 mL melanocyte growth media).
The cells were fed the appropriate media for the next 5 days. Each day, the cells were inspected for morphology.

[8] = system: keratinocytes; test: Gene expression study (RNA sequencing) in keratinocytes; assay type: cell-based, human; details: 24 hours of compound exposure
Protocol: (§3) Four cell types associated with pigmentation pathways—melanocytes, keratinocytes, fibroblasts and endothelial (HUVEC) cells—were analyzed for gene expression.
(§4) To simulate the UV stimulatory pigmentation pathway process, melanocytes were pre-treated with PGE2, a normal direct consequence of UV light exposure usually emanating from exposed keratinocytes. After the 48 hour attachment culture, these melanocytes were induced with 10 uM PGE2 in melanocyte media for 24 hrs. The four primary human adult dermal cell lines were cultured and plated in well plates in triplicate and then treated with 11 different compound treatments (plus DMSO control). After 48 hours of attachment culture, the remaining fibroblasts, HUVECs and keratinocytes were treated with the test compounds listed in Table 8.
(§5) After 24 hours of compound exposure, RNA lysate preparation was carried out and samples were shipped to MedGenome for RNA extraction, library construction and sequencing to 25M paired end 100 bp reads per sample. Library prep and sequencing was completed at MedGenome.

[9] = system: melanocytes; test: In vitro melanocyte comparative analysis via absorbance readings (melanin production); assay type: cell-based; details: for Absorbance 405 nm / Absorbance 490 nm / Absorbance 492 nm: 4 days, control = 0.0 row; for Regulation of melanogenesis (decreased absorption denoting decreased melanin formation): melanocytes, summary of Table 10
Protocol: Melanocytes were cultured in 6-well plates containing growth media. Once confluent, 2 concentrations of each of the 10 compounds were added to the cells in triplicate wells for 4 days. There were a total of eleven 6-well plates, one for each compound treatment and one for the vehicle control. Absorbance readings were taken on the lysates prepared for each well of the 6-well plates, normalizing for cells counts. The model was initially tested for accuracy and validated using hexapeptide-12 in view of strong gene expression results with melanocyte cell line in the first study—confirmation of decreased stimulation was obtained. Additional validation was carried out using MSH addition to media to confirm increased stimulation of melanin production. The following compounds used in this study are seen in Table 9.

[10] = system: endothelial (HUVEC) cells; test: Gene expression study (RNA sequencing) in endothelial (HUVEC) cells; assay type: cell-based, human; details: 24 hours of compound exposure
Protocol: as §3, §4, §5

[11] = change week 0 to week 12, N = 44 study product, N = 42 HQ4%
[12] = week 0 (baseline), N = 44 study product, N = 42 HQ4%
[13] = week 12, N = 44 study product, N = 42 HQ4%
[14] = higher concentration (Lactoferrin 1000, HEX-11 200, Phosphatidylserine 500, Silymarin 20, Sesamol 100, Tranexamic Acid 1000, HEX-12 4.9, ug/mL or ug/uL; Phytoene/Phytofluene 5.00%)
[15] = lower concentration (Lactoferrin 500, HEX-11 100, Phosphatidylserine 250, Silymarin 10, Sesamol 50, Tranexamic Acid 500, HEX-12 2.9, ug/mL or ug/uL; Phytoene/Phytofluene 2.50%)

## Oc1ccc(O)cc1 [HQ 4%, Hydroquinone]
[1]; Week 4
  Improved the evenness of my skin tone, % Agree or Somewhat Agree: 76.19%
  Improved the overall appearance of my skin, % Agree or Somewhat Agree: 76.19%
  Lessened the appearance of the dark spots and discoloration on my skin, % Agree or Somewhat Agree: 80.95%
  Made me feel more confident in the way my skin looks, % Agree or Somewhat Agree: 61.90%
  Made my skin look brighter and more radiant, % Agree or Somewhat Agree: 66.67%
  Made my skin look healthier, % Agree or Somewhat Agree: 61.90%
  Made my skin look more youthful, % Agree or Somewhat Agree: 42.86%
[1]; Week 8
  Improved the overall appearance of my skin, % Agree or Somewhat Agree: 85.71%
  Lessened the appearance of the dark spots and discoloration on my skin, % Agree or Somewhat Agree: 80.95%
  Made me feel more confident in the way my skin looks, % Agree or Somewhat Agree: 61.90%
  Made my skin look brighter and more radiant, % Agree or Somewhat Agree: 66.67%
  Made my skin look healthier, % Agree or Somewhat Agree: 71.43%
  Made my skin look more youthful, % Agree or Somewhat Agree: 71.43%
[1]; Week 12
  Improved the evenness of my skin tone, % Agree or Somewhat Agree: 85.71%
  Improved the overall appearance of my skin, % Agree or Somewhat Agree: 85.71%
  Lessened the appearance of the dark spots and discoloration on my skin, % Agree or Somewhat Agree: 76.19%
  Made me feel more confident in the way my skin looks, % Agree or Somewhat Agree: 61.90%
  Made my skin look brighter and more radiant, % Agree or Somewhat Agree: 90.48%
  Made my skin look healthier, % Agree or Somewhat Agree: 85.71%
  Made my skin look more youthful, % Agree or Somewhat Agree: 71.43%
[1]; Week &
  Improved the evenness of my skin tone, % Agree or Somewhat Agree: 85.71%
[2]; change week 0 to week 12
  Dyschromia, investigator score, mean change: 0.9
  Radiance, investigator score, mean change: 0.3
  Skin tone, investigator score, mean change: 0.9
  Texture, investigator score, mean change: 0
[2]; week 0 (baseline)
  Dyschromia, investigator score, mean: 5.7
  Radiance, investigator score, mean: 5
  Skin tone, investigator score, mean: 5.5
  Texture, investigator score, mean: 4.2
[2]; week 12
  Dyschromia, investigator score, mean: 4.8
  Radiance, investigator score, mean: 4.6
  Skin tone, investigator score, mean: 4.7
  Texture, investigator score, mean: 4.2
[3]; Week 4
  Dryness, percent of participants: 13.6%
  Erythema, percent of participants: 23%
  Peeling, percent of participants: 13.6%
[3]; Week 8
  Dryness, percent of participants: 14%
  Erythema, percent of participants: 14%
  Peeling, number of participants and grade: 1 mild
  Peeling, percent of participants: 4.7%
[3]; Week 12
  Dryness, number of participants and grade: 0
  Erythema, number of participants and grade: 4 minimal
  Erythema, percent of participants: 19%
  Peeling, number of participants and grade: 0
[4]; Week 12
  Left mMASI, mean: 1.8
  Left malar, mean: 6
  Right mMASI, mean: 1.9
  Right malar, mean: 6.3
  Total mMASI, mean: 5.2
[4]; change week 0 to week 12
  Left mMASI, mean change: 0.3
  Left malar, mean change: 1.1
  Right mMASI, mean change: 0.3
  Right malar, mean change: 1.1
  Total mMASI, mean change: 1
[4]; [11]
  Combined right and left mMASI, mean change: 0.3
  Combined right and left malar, mean change: 1.1
[4]; summary of Table 17
  improvement in mMASI scoring at 12 weeks versus baseline: no such improvement
[4]; week 0 (baseline)
  Left mMASI, mean: 2.2
  Left malar, mean: 7.2
  Right mMASI, mean: 2.2
  Right malar, mean: 7.4
  Total mMASI, mean: 6.1
[4]; [12]
  Combined right and left mMASI, mean: 2.2
  Combined right and left malar, mean: 7.3
[4]; [13]
  Combined right and left mMASI, mean: 1.9
  Combined right and left malar, mean: 6.2
[5]; Week 4
  Burning/Stinging, number of participants and grade: 6 minimal
  Burning/Stinging, percent of participants: 27%
  Itching, percent of participants: 36%
  Tingling, percent of participants: 18%
[5]; Week 8
  Burning/Stinging, percent of participants: 9.5%
  Itching, number of participants and grade: 1 minimal
  Itching, percent of participants: 4.7%
  Tingling, number of participants and grade: 1 mild
  Tingling, percent of participants: 4.7%
[5]; Week 12
  Burning/Stinging, number of participants and grade: 2 minimal
  Burning/Stinging, percent of participants: 9.5%
  Itching, percent of participants: 9.5%
  Tingling, number of participants and grade: 1 minimal
  Tingling, percent of participants: 4.7%
[5]; summary of Table 19
  participant-reported irritation versus the study product population: irritation is increased across all parameters
[6]
  adverse events, percent of population: 23.8%
  total number of adverse events reported: 5

## C/C=C1/[C@H](O[C@@H]2O[C@H](CO)[C@@H](O)[C@H](O)[C@H]2O)OC=C(C(=O)OC)[C@H]1CC(=O)OCCc1ccc(O)c(O)c1 [Oleuropein]
[7]
  melanocyte morphology / survival on daily inspection: nearly all melanocytes were dead 72 hours post-initial dosing

## Hexapeptide-11
[8]
  melanogenesis gene activity in keratinocytes: active ingredient in melanogenesis activity; also recorded: significant effects on melanogenesis activity
[9]; [14]
  Absorbance 405 nm: 0.338
  Absorbance 490 nm: 0.227
  Absorbance 492 nm: 0.163
[9]; [15]
  Absorbance 405 nm: 0.461
  Absorbance 490 nm: 0.288
  Absorbance 492 nm: 0.209
[9]
  Regulation of melanogenesis (decreased absorption denoting decreased melanin formation): Regulation of melanogenesis was observed

## Phosphatidylserine
[9]; [14]
  Absorbance 405 nm: 0.61
  Absorbance 490 nm: 0.38
  Absorbance 492 nm: 0.288
[9]; [15]
  Absorbance 405 nm: 0.686
  Absorbance 490 nm: 0.438
  Absorbance 492 nm: 0.338
[9]
  Regulation of melanogenesis (decreased absorption denoting decreased melanin formation): Regulation of melanogenesis was observed
[10]
  activity on EDN1 and other melanogenic genes in HUVECs: potent activity; also recorded: significant effects on melanogenesis activity
